Series [1] in a line: gastric ulceration test (ability to induce gastric ulceration, 4 days oral dosing). To be noted: in vivo; for selectivity ratio: therapeutic index in respect to gastric ulceration, * = significantly different from parent compound p ≤0.05, read-out: AII (antiinflammatory index, UD50/ED50). The method, then:
In addition to their antiinflammatory activity, the compounds were evaluated for their ability to induce gastric ulceration since gastric irritation is the most significant side effect following administration of prostaglandin biosynthesis inhibitors. As described by Wong et al., the dose (UD50 mg/kg/day) required to produce 50 percent ulcerogenic response following 4 days of oral dosing with test drug was determined. The results are shown in Table I. As described by Wong et al., a therapeutic index in respect to gastric ulceration, the "antiinflammatory index (AII)" defined as UD50 /ED50, was determined.

The nature of series [2]: rat adjuvant arthritis test (antiinflammatory activity). The format is in vivo, Female Wistar/Lewis rats. To be noted: oral, daily for 4 days, inhibition of noninjected hind paw volume vs controls, compounds given as aqueous solutions of sodium salts. How it is done: The antiinflammatory activity of the compounds of the instant invention was measured using the rat adjuvant arthritis test [S. Wong, J. F. Gardocki and T. P. Pruss, J. Pharmacol. and Exp. Ther. 185, 127 (1973)]. Female Wistar/Lewis rats were given an injection of heat-killed Mycobacterium butyricum in light mineral oil. After 11 days, the animals which had developed an arthritic condition were selected and given daily oral doses of test drug for 4 days. Paw volumes were measured and the percent inhibition of the noninjected hind paw as compared to controls was calculated. The results (Table I) are expressed as ED50 (mg/kg/day).

The conditions of series [3]: in vivo; cited from earlier work.
For series [4], the system named is prostaglandin biosynthesis. The note with it: cited from earlier work.

The structures appear in SMILES notation. Where two headings read alike, the source gives them in different places.

The ED50 is the dose that gives a 50% effect, or the effect in half of the subjects.

For the compound `Cc1cc(CC(=O)N[C@@H](CCC(=O)O)C(=O)O)n(C)c1C(=O)c1ccc(Cl)cc1` [VIII (3), N--{[5-(4-chlorobenzoyl)-1,4-dimethyl-1H--pyrrol-2-yl]-acetyl}-glutamic acid], in series [1], the “AII (antiinflammatory index, UD50/ED50)” value amounted to 68.9. This compound returned a UD50 in series [1] (96 h) of 37.0 mg/kg/day. Further, the ED50 in series [2] was 0.54 mg/kg/day.
Consider `Cc1cc(CC(=O)O)n(C)c1C(=O)c1ccc(Cl)cc1` [zomepirac, [5-(4-chlorobenzoyl)-1,4-dimethyl-1H-pyrrol-2-yl]acetic acid, reference compound], for which, in series [3], the “side effect (in words)” value is on record as “gastrointestinal irritation”. Also, in series [1], the TD50 at 96 h was determined as 13.8 mg/kg and the selectivity ratio amounted to 27.2. Besides, in series [4], the “mode of action (in words)” value is on record as “inhibition of prostaglandin biosynthesis”. For the same compound, the ED50 in series [2] (96 h, read-out: ED50) stood at 0.51 mg/kg.
On to `Cc1cc(CC(=O)N[C@@H](CCC(N)=O)C(=O)O)n(C)c1C(=O)c1ccc(Cl)cc1` [XI, N-{[5-(4-chlorobenzoyl)-1,4-dimethyl-1H-pyrrol-2-yl]-acetyl}-glutamine], for which, in series [1], the TD50 at 96 h stood at 33.4 mg/kg and the selectivity ratio was 46.5. Besides, the ED50 in series [2] (96 h, read-out: ED50) turned out to be 0.72 mg/kg.
`Cc1cc(CC(=O)NC(CCCCN)C(=O)O)n(C)c1C(=O)c1ccc(Cl)cc1` (centres unmarked) [X, N^2 -{[5-(4-chlorobenzoyl)-1,4-dimethyl-1H-pyrrol-2-yl]-acetyl}-lysine-hydrate(5:8)]: in series [1], the TD50 at 96 h was 35.1 mg/kg and the selectivity ratio stood at 54.8. Besides, the ED50 in series [2] (96 h, read-out: ED50) stood at 0.64 mg/kg.
Taken in the same sequence, the figures for `Cc1cc(CC(=O)NC(C)C(=O)O)n(C)c1C(=O)c1ccc(Cl)cc1` (centres unmarked) [VIII (1), N--{[5-(4-chlorobenzoyl)-1,4-dimethyl-1H--pyrrol-2-yl]-acetyl}-alanine] were 25.4 mg/kg, 37.6 and 0.67 mg/kg.
Taken in the same sequence, the figures for `Cc1cc(CC(=O)NC(CC(=O)O)C(=O)O)n(C)c1C(=O)c1ccc(Cl)cc1` (centres unmarked) [VIII (4), N--{[5-(4-chlorobenzoyl)-1,4-dimethyl-1H--pyrrol-2-yl]-acetyl}-aspartic acid] were 71 mg/kg, 93.1 and 0.76 mg/kg.
Turning to `Cc1cc(CC(=O)NCC(=O)O)n(C)c1C(=O)c1ccc(Cl)cc1` [Example VII, N-{[5-(4-chlorobenzoyl)-1,4-dimethyl-1H-pyrrol-2-yl]-acetyl}-glycine], in series [1], the TD50 at 96 h was 21.1 mg/kg and the selectivity ratio was 34.4. The ED50 in series [2] (96 h, read-out: ED50) was determined as 0.61 mg/kg.
With `CSCCC(NC(=O)Cc1cc(C)c(C(=O)c2ccc(Cl)cc2)n1C)C(=O)O` (centres unmarked) [VIII (2), N--{[5-(4-chlorobenzoyl)-1,4-dimethyl-1H--pyrrol-2-yl]-acetyl}-methionine], in series [1], the TD50 at 96 h was 43.7 mg/kg and the selectivity ratio was 46.9. In addition, in series [2] (96 h, read-out: ED50), the ED50 amounted to 0.93 mg/kg.

The values above are taken from patent publication US4585784A, “Pyrrole-2-acetylamino acid derivative compounds” (McNeilab, Inc., priority 1983, dated 1986).
